Measured values reported in ChEMBL document CHEMBL1759872, “Small-molecule probe using dual signals to monitor leucine aminopeptidase activity” (Bioorg Med Chem Lett, 2011).

Experiments:
[1] = Competitive inhibition of pig kidney LAP activity using N-(6-Methoxypyridine-3-yl), (S)-2-amino-4-methylpentanamide as substrate after 10 mins by Michaelis-Menten equation
[2] = Competitive inhibition of pig kidney LAP activity using l-Leucine-p-nitroanilide as substrate after 10 mins by Michaelis-Menten equation
[3] = Competitive inhibition of pig kidney LAP activity using DCDHF-Leu as substrate after 10 mins by Michaelis-Menten equation
[4] = species on record: Sus scrofa; assay: Activity at pig kidney LAP after 40 mins by Michaelis-Menten equation; format: tissue-based
[5] = tested on: HCT-116; assay: Drug uptake in human HCT116 cells at 20 uM after 20 mins by DAPI staining based microscopic analysis; format: ADME, cell-based; conditions: hct-116, 20 min
[6] = tested on: HCT-116; assay: Drug uptake in human HCT116 cells at 20 uM after 20 mins by DAPI staining based microscopic analysis in presence of bestatin; format: ADME, cell-based; conditions: hct-116, 20 min

SMILES | Km [4] | Vmax [4] | also measured
CC(C)C[C@H](NC(=O)[C@@H](O)[C@H](N)Cc1ccccc1)C(=O)O [UBENIMEX] | – | – | IC50 [1]: 7 µM; IC50 [2]: 25 µM; IC50 [3]: 4.41 µM
COc1ccc(NC(=O)[C@@H](N)CC(C)C)cn1 | 65 µM | 7.7 µmol/min/mg | –
CC1(C)OC(=C(C#N)C#N)C(C#N)=C1/C=C/c1ccc(N)cc1 | – | – | Drug uptake [5]: Active
CC(C)C[C@H](N)C(=O)Nc1ccc([N+](=O)[O-])cc1 | 3000 µM | 3.9 µmol/min/mg | –
CC(C)C[C@H](N)C(=O)Nc1ccc(/C=C/C2=C(C#N)C(=C(C#N)C#N)OC2(C)C)cc1 | 8.87 µM | 6.64 µmol/min/mg | fold change (FC) [5]: 6; Drug uptake [6]: Not Active
